The values below come from BindingDB's records for PubMed 1874734 (Laboratoires Glaxo, 1991).

The assay deals with cAMP-dependent protein kinase catalytic subunit alpha (Rattus norvegicus, UniProt P27791). Briefly: PKA assay.

The IC50 is the concentration needed to halve the response being measured. Read a high IC50 as weaker potency in that assay. Compound `CN1CCCC1CCn1cc(C2=C(c3c[nH]c4ccccc34)C(=O)NC2=O)c2ccccc21` (configuration not stated) [3-(1H-indol-3-yl)-4-{1-[2-(1-methylpyrrolidin-2-yl)ethyl]-1H-indol-3-yl}-2,5-dihydro-1H-pyrrole-2,5-dione] gave an IC50 of 2000 nM.

Turning to `CN(C)CCCn1cc(C2=C(c3c[nH]c4ccccc34)CNC2=O)c2ccccc21` [3-[1-(3-dymethylaminopropyl)-indol-3-yl]-4-(indol-3-yl)-3-pyrrolin-2-one], the half-maximal inhibitory concentration (IC50) was greater than 10000 nM.
